From paper PMC12124432, “Antimicrobial Peptide‐Peptoid Macrocycles from the Polymyxin B2 Chemical Space” (Angewandte Chemie (International Ed. in English), 2025)
Converted amounts (≈) assume the structure as drawn. Bridge positions count the residues as written; N and C are the ends. Square brackets hold non-standard residues; d marks the D form. Peptide text beside a SMILES is read from it. * marks the point of attachment. N(3-phenylpropyl)Gly = O=C(O)CNCCCc1ccccc1; Gly(NCH2CH2Ph) = O=C(O)CNCCc1ccccc1; Gly(N-2-aminoethyl) = NCCNCC(=O)O; Gly(N(CH2)3NH2) = NCCCNCC(=O)O; Gly(N-cPent) = O=C(O)CNC1CCCC1; Heptanoyl = CCCCCCC(=O)*; Nphe = O=C(O)CNCc1ccccc1; Octanoyl = CCCCCCCC(=O)*; Dab = NCC[C@H](N)C(=O)O; NPrGly = CCCNCC(=O)O

Key:
P. aeruginosa PAO1 [1] = type: cell-based, Pseudomonas aeruginosa; conditions: for Effect of salt on antibacterial activity against P. aeruginosa: NaCl 0-300 mM in 12.5% Mueller-Hinton broth at pH 8.5; for MIC on P. aeruginosa, 0 mM NaCl / MIC on P. aeruginosa, 100 mM NaCl / MIC on P. aeruginosa, 200 mM NaCl / MIC on P. aeruginosa, 300 mM NaCl: PAO1, pH 8.5
Protocol: Minimal Inhibitory Concentration (MIC)
Antimicrobial activity was assayed for all the peptide-peptoids against P. aeruginosa PAO1, K. pneumoniae NCTC418, E. coli W3110, A. baumannii ATCC 19606, methicillin-resistant S. aureus COL (MRSA) and for selected peptides on P. aeruginosa PA14, as well as the clinical isolates ZEM-1A and ZEM9A, K. pneumoniae OXA-48, Enterobacter cloacae, Stenotrophomonas maltophilia and Staphylococus epidermidis. To determine the Minimal Inhibitory Concentration (MIC), Broth Microdilution method was used. A colony of bacteria was picked and grown in LB medium overnight at 37 °C. The next day, the culture was then regrown in LB medium to log phase (OD600 = 0.6 to 0.8), which lasted approximately 4 hours, and diluted to an OD600 of 0.022 in the desired medium (full MH or 12.5% MH).
The compounds were prepared as stock solutions of 2 mg/mL in sterilized MilliQ deionized water and then diluted in the desired media (full MH or 12.5% MH) to reach the first concentration tested (32 μg/mL). The compounds were added to the first well of a 96-well sterile, round bottom microtiter plates in polystyrene (TPP®, untreated) and diluted serially by ½ in the desired media (full MH or 12.5% MH), to a final volume of 150 µL/well. To each well was finally added 4 µL of the diluted bacterial suspension (see above), corresponding to approximately 5×10^5 CFU. For each test, two columns of the plate were kept for sterility control (medium only), growth control (medium with bacterial inoculum, no compound). The positive control, Polymyxin B (starting with a concentration of 16 µg/mL) in MH medium with bacterial inoculums, was introduced in the two first lines of the plate. The plates were incubated at 37 °C for ca. 18 hours under static conditions. 15 µL of 3-(4,5-dimethylthiazol-2-yl)-2,5-diphenyltetrazolium bromide (MTT)[7] (1 mg/mL in sterilized MilliQ deionized water) were added to each well and the plates were incubated for 20-30 minutes at room temperature. The […]
minimal inhibitory concentration (MIC) was defined as the lowest concentration of the compound that inhibits the visible growth of the tested bacteria (yellow) with the unaided eye.
Minimal Hemolytic Concentration (MHC) […]
11. Minimal inhibitory in presence of salt
The same procedure as for the antibacterial activity measurements by minimal inhibitory concentration assay (MIC) was applied. The media, 12.5% Mueller-Hinton broth was this time supplemented with different salt concentrations (0, 100, 200 300 mM NaCl). The MIC activities were then determined against Pseudomonas aeruginosa PAO1 and Escherichia coli […]
Table S6. Minimal inhibitory concentration (MIC) on P. aeruginosa PAO1 as function of salt […]
All data, in μg/mL, measured against P. aeruginosa PAO1, with or without addition of salt (NaCl). The values were measured in dilute medium (12.5% MH) and at slightly basic pH (pH = 8.5), after incubation for 16-20 h at 37 °C. Values represent two different duplicate MIC determinations.

P. aeruginosa PAO1 [2] = experiment: DiSC3(5) inner-membrane depolarization assay; type: cell-based, Pseudomonas aeruginosa; conditions: 2 µM DiSC3(5), mean ± SD, n = 3
Protocol: Outer Membrane (NPN) - E. coli
Figure S6. Outer membrane permeability assay with 10 μM NPN, on E. coli W3110.
13. DiSC3(5) Inner-Membrane Depolarization Assay
A single colony of P. aeruginosa PAO1 and E. coli W3110 was grown overnight with shaking […]
(150 rpm) in LB broth (5 mL) at 37 °C. 100 μL of the overnight culture was regrown in 10 […]
mL LB broth with shaking (200 rpm) to the exponential phase OD600 = 1 (10^9 CFU/mL).
Bacteria were washed once with HEPES buffer (5 mM HEPES, 5 mM glucose, pH 7.4) and […]
diluted to OD600 = 0.5. Stock solution of 10 mM of 3,3′ -Dipropylthiadicarbocyanine iodide […]
(DiSC3(5), purchased from Sigma) was prepared in DMSO. Stock solutions of 2 m g/mL of […]
the compounds were prepared in sterilized milli -Q water and diluted to the beginning […]
concentration of 128 μg/mL in 200 μL HEPES buffer. The diluted samples were added to the […]
first well of 96-well plates (black wells, flat bottom, BRAND ® GmbH Wertheim, Germany) […]
and diluted serially by 1/2. […]
DiSC3(5) in HEPES buffer. The plate was measured with a Tecan instrument Infinite M1000 […]
wavelength used was 610 nm ± 5 nm and the emission wavelength 660 nm ± 5 nm. The assay was measured in triplicate and repeated at least two times.[10,11] […]
Saturation determination. […] The fluorescence saturation of DsPMB with LPS was first determined, by titration (0.25 μM increments, up to 5 μM) of the DsPMB into a 3 μg/mL of LPS (10 mM Tris, 10 mM NaCl buffer, pH 7.4), at 37 °C. The fluorescence was recorded with a Jasco spectrofluorometer FP-8300, with the excitation at λex = 340 nm (5 nm slit width) and recorded from 420 to 650 nm. The fluorescence was recorded two minutes after each addition. Saturation was graphically determined, at a concentration of D sPMB ≈ 2.5 μM (λem = 485 nm). Each measurement was determined in triplicates.
Displacement assay. The displacement effect of the various peptides was determined by measuring the reduction of fluorescence intensity, at 37 °C. Initially, DsPMB (2.5 μM) was mixed with LPS (3 μg/mL) and let it react for 15 minutes before recording the fluorescence

Structure (SMILES)	Effect of salt on antibacterial activity against P. aeruginosa (P. aeruginosa PAO1 [1])	MIC on P. aeruginosa, 0 mM NaCl (P. aeruginosa PAO1 [1]) [µg/mL]	MIC on P. aeruginosa, 100 mM NaCl (P. aeruginosa PAO1 [1]) [µg/mL]	MIC on P. aeruginosa, 200 mM NaCl (P. aeruginosa PAO1 [1]) [µg/mL]	MIC on P. aeruginosa, 300 mM NaCl (P. aeruginosa PAO1 [1]) [µg/mL]	Inner membrane depolarization (DiSC3(5)) (P. aeruginosa PAO1 [2])
CCCCCCCC(=O)N(CCc1ccccc1)CC(=O)N[C@@H](CCCCN)C(=O)N[C@@H](CC(N)=O)C(=O)N[C@H]1CCNC(=O)[C@H](CCCCN)NC(=O)CN(CCCN)C(=O)[C@H](CCCCN)NC(=O)CN(CCC)C(=O)[C@H](CCCCN)NC1=O [EB12] (Octanoyl-[Gly(NCH2CH2Ph)]KN[Dab]K[NPrGly]K[Gly(N(CH2)3NH2)]K; lactam 4-C)	inhibited by high salt concentrations	2 to 4	32 (≈ 26.1 µM)	> 64	> 64	induced a depolarization of the inner membrane like PMB2
CCCCCCC(=O)N[C@H](C(=O)N(CCN)CC(=O)N(CCCc1ccccc1)CC(=O)N[C@H]1CCNC(=O)[C@H](CCCCN)NC(=O)CN(CCCN)C(=O)[C@H](CCCCN)NC(=O)CNC(=O)[C@H](CCCCN)NC1=O)C(C)C [EB13] (Heptanoyl-V[Gly(N-2-aminoethyl)][N(3-phenylpropyl)Gly][Dab]KGK[Gly(N(CH2)3NH2)]K; lactam 4-C)	inhibited by high salt concentrations	4 (≈ 3.5 µM)	> 64	> 64	> 64	induced a depolarization of the inner membrane like PMB2
CCCCCCCC(=O)N[C@@H](CCCCN)C(=O)N(CC(=O)N[C@@H](CCCCN)C(=O)N[C@H]1CCNC(=O)[C@H](CCCCN)NC(=O)CN(C2CCCC2)C(=O)CN(CCN)C(=O)[C@H](CCCCN)NC(=O)[C@H](CC(N)=O)NC1=O)Cc1ccccc1 [EB21] (Octanoyl-K[Nphe]K[Dab]NK[Gly(N-2-aminoethyl)][Gly(N-cPent)]K; lactam 4-C)	inhibited by high salt concentrations	4 (≈ 3.26 µM)	> 64	> 64	> 64	induced a depolarization of the inner membrane like PMB2
